In patent US11840706B2, “Composition and method for generating a desired cell type and/or tissue type from hair follicular stem cells” (priority 2013, dated 2023):
“Also recorded” adds a separate entry of the source.

Tested on: keratinocytes
Test: Effect of vanadium compounds on proliferation of keratinocytes (hair follicle culture, cell count)
Type: cell-based
Settings: 14 days culture; for amount of proliferated keratinocytes relative to the control situation: 1 mg/ml in basic SFK growth medium, 31° C., control = SFK medium lacking a vanadium compound
Protocol: Method: Hair follicles were transferred to a 24-well culture disk containing dSFK with 500 mg/ml penicillin (Life Technologies B.V. Breda, The Netherlands) and 0.25 μg/ml streptomycin (Life Technologies B.V. Breda, The Netherlands), and placed for 14 days in a culture medium at 31° C. in a humidified atmosphere containing 5% CO2. Three different culture medium were used: • Treatment group oxovanadium (OVAN): The culture medium is a composition comprising a basic SFK growth serum (purchased from the supplier SFK, Enschede The Netherlands) supplemented with either 1 mg/ml of OVAN. • Treatment group bis (maltolato) oxovanadium (BMOV): The culture medium is a composition comprising a basic SFK growth serum (purchased from the supplier SFK, Enschede The Netherlands) supplemented with either 1 mg/ml of BMOV. • Control group: The control situation consists of a composition comprising the SFK basic growth serum but without the vanadium compounds (i.e. OVAN or BMOV).
The respective culture media were carefully removed every three days and replaced by fresh culture media. The cells remained attached to the hair follicles during this culture period. After 14 days the culture medium was removed and replaced by a 0.5 mg/ml trypsin, 0.2 mg/ml EDTA (ethylene diaminetetraacetic acid) solution (Life Technologies B.V. Breda, The Netherlands), and incubated for 5 minutes at 37° C. in this medium. After this incubation period clusters of cells were released from the hair follicles. These were harvested by centrifugation at 300 g at 4° C. for 5 minutes in an Eppendorf 5804R Centrifuge (VWR International, The Netherlands). Number of cells were counted and expressed as amount of proliferated cells per ml of culture medium.

Compound: Cc1occc(=O)c1[O-].Cc1occc(=O)c1[O-].[O]=[V+2] [BMOV, bis(maltolato) oxovanadium]
- proliferation of keratinocytes, BMOV compared with OVAN (1 mg/ml each): greater number of proliferated cells relative to treatment with OVAN; also recorded: more potent than OVAN
- amount of proliferated keratinocytes relative to the control situation: enhanced proliferation; also recorded: significantly increased

Compound: oxovanadium
- amount of proliferated keratinocytes relative to the control situation: enhanced proliferation; also recorded: significantly increased
